Measured values taken from paper PMC10454396 (International Journal of Molecular Sciences, 2023).
≈ marks a conversion by molar mass, not a printed value. Read-outs that look alike come from different tables or passages of the source.

Assays:
[1] = tested on: Staphylococcus aureus Newman WT; test: MIC, broth microdilution, S. aureus Newman wild type; type: cell-based
Description: (§1) Cefazolin was obtained from Acros Organics. Ciprofloxacin hydrochloride, linezolid and vancomycin hydrochloride were obtained from Sigma-Aldrich (St. Louis, MO, USA). Tetracycline hydrochloride was obtained from Alfa Aesar. Sorangicin A was provided by HZI, Braunschweig. Stock solutions were prepared in Milli-Q water or dimethyl sulfoxide (DMSO, Sigma-Aldrich). Minimum inhibitory concentrations (MICs) were determined in cation-adjusted Mueller-Hinton broth (MHB2) using the broth microdilution method as recommended by the Clinical and Laboratory Standards Institute (CLSI). The MIC was defined as the lowest concentration of the antibiotic causing complete inhibition of visible growth of the microorganism (CLSI, 2017).
(§2) 1. In vitro characterization of mCherry expressing Staphylococcus aureus Newman
(§3) 1.1 Minimum inhibitory concentration
(§4) Table S1. Antibiotic susceptibility profile of Staphylococcus aureus Newman. WT: wild type. […]

[2] = tested on: Staphylococcus aureus Newman mCherry; test: MIC, broth microdilution, mCherry-expressing S. aureus Newman; type: cell-based
Description: as §1, §2, §3, §4

[3] = tested on: mCherry-expressing S. aureus Newman; test: Zebrafish embryo model of S. aureus yolk infection, antibiotic treatment efficacy; type: in vivo, Staphylococcus aureus
Description: With the aim to study the in vivo efficacy of drugs, 30 hpf zebrafish embryos were infected with 50 CFU of mCherry-expressing S. aureus Newman. Embryos were then left to recover from injection for two hours and subsequently treated with various reference antibiotics. Antibiotic treatment was performed via bath water immersion as well as via microinjection into the yolk (local treatment) and the caudal vein (systemic treatment) to study whether differences in in vivo activity exist between the three administration routes. Survival was assessed daily until 120 hpf. Additionally, the infection was visualized and quantified by means of fluorescence microscopy at 24 h post treatment (hpt). At the end of every experiment, living embryos (and dead embryos, if possible) were homogenized to determine the remaining bacterial count. Five approved antibiotics from different classes were assessed in vivo. The chosen drugs ought to differ in physicochemical properties, such as molecular weight and polarity, in order to detect a pattern between successful administration routes and the physicochemical properties of the drug. Prior to efficacy assessment, drug-mediated toxicity in zebrafish embryos was investigated using the same administration routes (Figure S3). For microinjection, a fixed dose of 20 to 30 mg/kg was used for each antibiotic. The concentration for bath water immersion was based on the minimum inhibitory concentration (MIC) and the maximum tolerated concentration (MTC) of the drug, whereby it is generally recommended to use 50- to 100-fold the antibacterial MIC to see a positive effect.
Pulled glass capillaries for microinjection (Table S2) were prepared using a micropipette puller (P-1000, Sutter Instrument). Dechorionated and anaesthetized embryos were infected with 50 colony-forming units (CFU) of mCherry-expressing S. aureus Newman by microinjection into the yolk sac at 30 hpf. In order to confirm bacterial numbers, an equal volume of bacterial cells was ejected onto Tryptic Soy Agar (TSA) supplemented with 10 µg/mL chloramphenicol before and after the injection. Antibiotic treatment was performed two hours post infection (hpi) via three different administration routes, namely bath water immersion and microinjection into the yolk sac as well as the caudal vein (CV). The infection procedure and treatment of infected embryos are described in details in the supplementary materials (Table S3).
Embryos were transferred individually to microcentrifuge tubes and washed at least three times with sterile PBS. 200 µL of sterile PBS were added and embryos were mechanically homogenized using a micropestle (Carl Roth, Karlsruhe, Germany). 800 µL of sterile PBS were added to reach a final volume of 1 mL. The homogenates were diluted and plated on tryptic soy agar (TSA). CFU counts were determined after 24 h of incubation at 37 °C.
Embryos were placed in a black 96-well plate (Falcon; Thermo Fisher, Dreieich, Germany) and cryo-anaesthetized by submersion into ice water. Images for quantitative fluorescence analysis were acquired using the following equipment: a fluorescence stereo microscope (M205 FA, Leica Microsystems, Wetzlar, Germany) in combination with a fluorescence illuminator (X-Cite, 200DC, Excelitas Technologies, Waltham, MA, USA) and a microscope camera (DFC7000 T, Leica Microsystems). Quantification of fluorescence was performed using Fiji ImageJ version 2.1.0. Fluorescent Integrated Density (FID) was determined by counting the number of pixels with fluorescence intensity greater than the threshold (10) and multiplying the count with its mean intensity. For confocal imaging, embryos were anaesthetized through immersion in tricaine (945 µM, Sigma-Aldrich) and immobilized in 1.2% low-melting agarose in a flat-bottom 96-well plate. Confocal images and time-lapse series were acquired using the Celldiscoverer 7 with LSM 900 (Zeiss) together with the 5×/0.35 Plan-APOCHROMAT objective.
2. […]

[4] = tested on: zebrafish embryos; test: Toxicity of antimicrobials on zebrafish embryos; type: in vivo, Danio rerio; settings: bath water immersion 50x MIC, no bacteria recovered from dead embryos
Description: Toxicity of antibiotics was assessed by aquatic exposure and microinjection. For evaluation of the maximum tolerated concentration (MTC) by aquatic exposure, embryos were dechorionated at 30 hpf and placed in a flat-bottom 96-well plate (Sarstedt) with one embryo per well. Excess medium was removed and 150 µL of compound dilutions (in 0.3× Danieau’s, maximum of 1% DMSO) were added. For each antibiotic, a range of concentrations was investigated. Ten embryos were used per concentration and ten additional embryos incubated in fish medium without any antibiotic served as negative control. Microinjection of antibiotics into the caudal vein (CV) and the yolk sac was performed as described earlier. PBS-injected embryos served as negative control. Exposed embryos were maintained at 28 °C throughout the whole experiment. Embryos were monitored daily under a stereo microscope (Stemi 508, Zeiss) in order to record survival as well as anomalies, pigmentation, heartbeat and locomotor responses. An embryo was considered dead when no heart beat could be observed.

[5] = Staphylococcus aureus, S. aureus Newman WT, MHB2 broth microdilution, read-out: MIC
[6] = bath water immersion 50-100x MIC
[7] = caudal vein microinjection 20-30 mg/kg, 2 hpi
[8] = yolk microinjection 20-30 mg/kg, 2 hpi
[9] = S. aureus Newman WT, MHB2 broth microdilution
[10] = S. aureus Newman mCherry, MHB2 broth microdilution

Molecule | MIC [1, 5] [µg/mL] | bacterial fluorescence (FID) at 24 hpt ([3]; bath water immersion) | effect on survival of infected embryos [3, 6] | bacterial fluorescence (FID) at 24 hpt ([3]; caudal vein microinjection) | effect on survival of infected embryos [3, 7] | bacterial fluorescence (FID) at 24 hpt ([3]; yolk microinjection) | effect on survival of infected embryos [3, 8] | other results
CC1(C)S[C@@H]2[C@H](NC(=O)[C@H](N)c3ccccc3)C(=O)N2[C@H]1C(=O)O [ampicillin] | 0.125 (≈ 0.358 µM) | – | – | – | – | – | – | MIC ([2]; Staphylococcus aureus, NEWMAN): 0.5 µg/mL (≈ 1.43 µM)
Cc1nnc(SCC2=C(C(=O)O)N3C(=O)[C@@H](NC(=O)Cn4cnnn4)[C@H]3SC2)s1 [cefazolin] | – | FID values equal to the positive control | did not show any effect | No fluorescence was observed | exhibit treatment efficacy | No fluorescence was observed | exhibit treatment efficacy | bacteria recovered (CFU plating) at 120 hpf ([3]; caudal vein microinjection): no colonies were recovered; bacteria recovered (CFU plating) at 120 hpf ([3]; yolk microinjection): no colonies were recovered
O=C(N[C@H](CO)[C@H](O)c1ccc([N+](=O)[O-])cc1)C(Cl)Cl [chloramphenicol] | 8 (≈ 24.8 µM) | – | – | – | – | – | – | MIC ([2]; Staphylococcus aureus, NEWMAN): 64 µg/mL (≈ 198 µM)
O=C(O)c1cn(C2CC2)c2cc(N3CCNCC3)c(F)cc2c1=O [ciprofloxacin] | 0.25 (≈ 0.754 µM) | a decrease in FID values | slightly prolong survival | No fluorescence was observed | exhibit treatment efficacy | No fluorescence was observed | exhibit treatment efficacy | embryos died due to infection ([3]; bath water immersion, 50 CFU yolk infection): more than 80%; bacteria recovered (CFU plating) at 120 hpf ([3]; caudal vein microinjection): no colonies were recovered; bacteria recovered (CFU plating) at 120 hpf ([3]; yolk microinjection): no colonies were recovered
CC[C@H]1OC(=O)[C@H](C)[C@@H](O[C@H]2C[C@@](C)(OC)[C@@H](O)[C@H](C)O2)[C@H](C)[C@@H](O[C@@H]2O[C@H](C)C[C@H](N(C)C)[C@H]2O)[C@](C)(OC)C[C@@H](C)C(=O)[C@H](C)[C@@H](O)[C@]1(C)O [clarithromycin] | 0.25 (≈ 0.334 µM) | – | – | – | – | – | – | –
CCCCCCCCCC(=O)N[C@@H](Cc1c[nH]c2ccccc12)C(=O)N[C@H](CC(N)=O)C(=O)N[C@@H](CC(=O)O)C(=O)N[C@@H]1C(=O)NCC(=O)N[C@@H](CCCN)C(=O)N[C@@H](CC(=O)O)C(=O)N[C@H](C)C(=O)N[C@@H](CC(=O)O)C(=O)NCC(=O)N[C@H](CO)C(=O)N[C@@H]([C@H](C)CC(=O)O)C(=O)N[C@@H](CC(=O)c2ccccc2N)C(=O)O[C@@H]1C [daptomycin] | 2 (≈ 1.23 µM) | – | – | – | – | – | – | –
CC[C@H]1OC(=O)[C@H](C)[C@@H](O[C@H]2C[C@@](C)(OC)[C@@H](O)[C@H](C)O2)[C@H](C)[C@@H](O[C@@H]2O[C@H](C)C[C@H](N(C)C)[C@H]2O)[C@](C)(O)C[C@@H](C)C(=O)[C@H](C)[C@@H](O)[C@]1(C)O [erythromycin] | 0.25 (≈ 0.341 µM) | – | – | – | – | – | – | –
CNC(C)C1CCC(N)C(OC2C(N)CC(N)C(OC3OCC(C)(O)C(NC)C3O)C2O)O1 (centres unmarked) [gentamicin] | 0.5 (≈ 1.05 µM) | – | – | – | – | – | – | –
NC[C@H]1O[C@H](O[C@H]2[C@H](O)[C@@H](O[C@H]3O[C@H](CO)[C@@H](O)[C@H](N)[C@H]3O)[C@H](N)C[C@@H]2N)[C@H](O)[C@@H](O)[C@@H]1O [kanamycin] | – | – | – | – | – | – | – | MIC [1, 9]: 4 µg/mL (≈ 8.26 µM); MIC [2, 10]: 4 µg/mL (≈ 8.26 µM)
CC(=O)NC[C@H]1CN(c2ccc(N3CCOCC3)c(F)c2)C(=O)O1 [linezolid] | 2 (≈ 5.93 µM) | No fluorescence was recorded | significantly (p < 0.0001) prolonged the survival | No fluorescence was recorded | significantly (p < 0.0001) prolonged the survival | No fluorescence was recorded | significantly (p < 0.0001) prolonged the survival | recovery from infection (fluorescence microscopy and CFU plating) ([3]; bath water immersion 50x MIC): full recovery from infection; survival ([3]; bath water immersion, treatment 2 hpi, 50 CFU yolk infection, until 120 hpf): 90%; mortality rate ([3]; yolk and caudal vein injection 2 hpi, 50 CFU yolk infection): greater than 75%; bacterial numbers ([3]; yolk and caudal vein injection, embryos with lethal infection): exceeding 10^5 CFU/embryo; cause of death of embryos in immersion group [4]: potential toxic effect
CN(C)[C@@H]1C(O)=C(C(N)=O)C(=O)[C@@]2(O)C(O)=C3C(=O)c4c(O)cccc4[C@@](C)(O)[C@H]3C[C@@H]12 [tetracycline] | 0.25 (≈ 0.563 µM) | FID values equal to the positive control | did not show any effect | No fluorescence was observed | exhibit treatment efficacy | No fluorescence was observed | exhibit treatment efficacy | bacteria recovered (CFU plating) at 120 hpf ([3]; caudal vein microinjection): no colonies were recovered; bacteria recovered (CFU plating) at 120 hpf ([3]; yolk microinjection): no colonies were recovered
NC[C@H]1O[C@H](O[C@H]2[C@H](O)[C@@H](O[C@H]3O[C@H](CO)[C@@H](O)[C@H](N)[C@H]3O)[C@H](N)C[C@@H]2N)[C@H](N)C[C@@H]1O [tobramycin] | 0.5 (≈ 1.07 µM) | – | – | – | – | – | – | –
CN[C@H](CC(C)C)C(=O)N[C@H]1C(=O)N[C@@H](CC(N)=O)C(=O)N[C@H]2C(=O)N[C@H]3C(=O)N[C@H](C(=O)N[C@H](C(=O)O)c4cc(O)cc(O)c4-c4cc3ccc4O)[C@H](O)c3ccc(c(Cl)c3)Oc3cc2cc(c3O[C@@H]2O[C@H](CO)[C@@H](O)[C@H](O)[C@H]2O[C@H]2C[C@](C)(N)[C@H](O)[C@H](C)O2)Oc2ccc(cc2Cl)[C@H]1O [vancomycin] | – | no reduction in bacterial fluorescence | No increased survival | no reduction in bacterial fluorescence | No increased survival | no development of fluorescence | prevented embryo death | MIC ([1]; Staphylococcus aureus, NEWMAN): 2 µg/mL (≈ 1.38 µM); MIC ([2]; Staphylococcus aureus, NEWMAN): 2 µg/mL (≈ 1.38 µM); survival ([3]; yolk microinjection (local treatment) 2 hpi, 50 CFU yolk infection): 90%; colonies recovered at the end of the experiment ([3]; yolk-treated embryos): 0–2500 CFU
teicoplanin | – | – | – | – | – | – | – | MIC [1, 9]: 1 µg/mL; MIC [2, 10]: 1 µg/mL
